One experiment has as its target Galectin-1 (Homo sapiens, UniProt P09382). The experiment can be described thus: Fluorescence anisotropy assay, inhibition of galectin / fluorescein tagged saccharide probe interaction. To be noted: compound as inhibitor of probe binding. Here is the method: (§1) The affinity of Example 1-45 for galectins were determined by a fluorescence anisotropy assay where the compound was used as an inhibitor of the interaction between galectin and a fluorescein tagged saccharide probe as described Sörme, P., Kahl-Knutsson, B., Huflejt, M., Nilsson, U. J., and Leffler H. (2004) Fluorescence polarization as an analytical tool to evaluate galectin-ligand interactions. Anal. Biochem. 334: 36-47, (Sorme et al., 2004) and Monovalent interactions of Galectin-1 By Salomonsson, Emma; Larumbe, Amaia; Tejler, Johan; Tullberg, Erik; Rydberg, Hanna; Sundin, Anders; Khabut, Areej; Frejd, Torbjorn; Lobsanov, Yuri D.; Rini, James M.; et al, From Biochemistry (2010), 49(44), 9518-9532, (Salomonsson et al., 2010).
(In general: In fluorescence polarisation assays a small probe gives low polarisation when free and higher when bound to something large.)

Another experiment deals with Galectin-3 (Homo sapiens, UniProt P17931). The description is as above. To be noted: compound as inhibitor of probe binding. Here is the method:
as §1

Sequence of Galectin-1 (P09382 whole entry, species assumed): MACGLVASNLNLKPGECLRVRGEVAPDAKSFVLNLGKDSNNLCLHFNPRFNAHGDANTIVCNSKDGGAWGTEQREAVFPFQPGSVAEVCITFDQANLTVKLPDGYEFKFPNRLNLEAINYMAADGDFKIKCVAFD
Sequence of Galectin-3 (P17931 whole entry, species assumed): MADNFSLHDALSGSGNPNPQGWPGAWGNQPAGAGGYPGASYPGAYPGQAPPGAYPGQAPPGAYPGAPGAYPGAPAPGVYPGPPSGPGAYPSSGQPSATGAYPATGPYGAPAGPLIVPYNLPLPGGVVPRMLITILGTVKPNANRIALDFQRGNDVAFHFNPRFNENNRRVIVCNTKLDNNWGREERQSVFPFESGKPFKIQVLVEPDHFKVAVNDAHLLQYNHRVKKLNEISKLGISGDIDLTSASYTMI

In general, Kd refers to the equilibrium constant for the complex coming apart. Take `OCC1O[C@H](Sc2cncc(Cl)c2)C(O)C(n2cc(-c3cccc(F)n3)cn2)[C@H]1O` (stereo partly drawn) [Example 18, 5-Chloropyridin-3-yl 3-deoxy-3-[4-(6-fluoropyridin-2-yl)-1H-1,2-pyrazol-1-yl]-1-thio-α-D-galactopyranoside]: the equilibrium dissociation constant (Kd) at Galectin-1 came to 12.3 µM; on Galectin-3, 0.69 µM.

Consider `OCC1O[C@H](Sc2cncc(Cl)c2)C(O)C(n2cc(-c3ccc(F)cn3)cn2)[C@H]1O` (stereo partly drawn) [Example 19, 5-Chloropyridin-3-yl 3-deoxy-3-[4-(5-fluoropyridin-2-yl)-1H-1,2-pyrazol-1-yl]-1-thio-α-D-galactopyranoside], for which the dissociation constant (Kd) on Galectin-1 amounted to 4.1 µM; at Galectin-3 it was 1.6 µM.

Turning to `OCC1O[C@H](Sc2cncc(Cl)c2)C(O)C(n2cc(-c3cc(F)ccn3)cn2)[C@H]1O` (stereo partly drawn) [Example 20, 5-Chloropyridin-3-yl 3-deoxy-3-[4-(4-fluoropyridin-2-yl)-1H-1,2-pyrazol-1-yl]-1-thio-α-D-galactopyranoside], the Kd worked out at 10.2 µM on Galectin-1 and 0.63 µM at Galectin-3.

Regarding `OCC1O[C@H](Sc2cncc(Cl)c2)C(O)C(n2cc(-c3cc[nH]n3)cn2)[C@H]1O` (stereo partly drawn) [Example 21, 5-Chloropyridin-3-yl 3-deoxy-3-[4-(1H-1,2-pyrazol-3-yl)-1H-1,2-pyrazol-1-yl]-1-thio-α-D-galactopyranoside], the results for the Kd on Galectin-1 and on Galectin-3 were 8.9 µM and 12.7 µM, respectively.

On to `Cn1ccc(-c2cnn(C3C(O)[C@@H](Sc4cncc(Cl)c4)OC(CO)[C@@H]3O)c2)n1` (stereo partly drawn) [Example 22, 5-Chloropyridin-3-yl 3-deoxy-3-[4-(1-methyl-1,2-pyrazol-3-yl)-1H-1,2-pyrazol-1-yl]-1-thio-α-D-galactopyranoside], for which the Kd came out at 14.7 µM at Galectin-1 and 9.6 µM on Galectin-3.

On to `OCC1O[C@H](Sc2cncc(Cl)c2)C(O)C(n2cc(-c3ncc[nH]3)cn2)[C@H]1O` (stereo partly drawn) [Example 23, 5-Chloropyridin-3-yl 3-deoxy-3-[4-(1H-imidazol-2-yl)-1H-1,2-pyrazol-1-yl]-1-thio-α-D-galactopyranoside], for which the Kd at Galectin-1 was 3.4 µM; at Galectin-3, 9 µM.

Take `OCC1O[C@H](Sc2cncc(Cl)c2)C(O)C(n2cc(-c3ncco3)cn2)[C@H]1O` (stereo partly drawn) [Example 24, 5-Chloropyridin-3-yl 3-deoxy-3-[4-(oxazol-2-yl)-1H-1,2-pyrazol-1-yl]-1-thio-α-D-galactopyranoside]: the Kd on Galectin-1 is 6.1 µM; on Galectin-3, 10.3 µM.

On to `OCC1O[C@H](Sc2cncc(Cl)c2)C(O)C(n2cc(-c3cscn3)cn2)[C@H]1O` (stereo partly drawn) [Example 25, 5-Chloropyridin-3-yl 3-deoxy-3-[4-(thiazol-4-yl)-1H-1,2-pyrazol-1-yl]-1-thio-α-D-galactopyranoside], for which the dissociation constant (Kd) at Galectin-1 amounted to 1.3 µM; on Galectin-3 it was 9.6 µM.

In the case of `OCC1O[C@H](Sc2cncc(Cl)c2)C(O)C(n2cc(-c3nccs3)cn2)[C@H]1O` (stereo partly drawn) [Example 26, 5-Chloropyridin-3-yl 3-deoxy-3-[4-(thiazol-2-yl)-1H-1,2-pyrazol-1-yl]-1-thio-α-D-galactopyranoside], the figures for the Kd on Galectin-1 and on Galectin-3 were 2.3 µM and 9.9 µM, respectively.

As for `OCC1O[C@H](Sc2cncc(Cl)c2)C(O)C(n2cc(-c3nc(Cl)cs3)cn2)[C@H]1O` (stereo partly drawn) [Example 27, 5-Chloropyridin-3-yl 3-[4-(4-chlorothiazol-2-yl)-1H-1,2-pyrazol-1-yl]-3-deoxy-1-thio-α-D-galactopyranoside], the Kd on Galectin-1 came out at 0.59 µM; on Galectin-3 it was 1.5 µM.

As to `OCC1O[C@H](Sc2cncc(Br)c2)C(O)C(n2cc(-c3nc(Cl)cs3)cn2)[C@H]1O` (stereo partly drawn) [Example 28, 5-Bromopyridin-3-yl 3-[4-(4-chlorothiazol-2-yl)-1H-1,2-pyrazol-1-yl]-3-deoxy-1-thio-α-D-galactopyranoside], the Kd was found to be 0.52 µM on Galectin-1 and 1.2 µM on Galectin-3.

Consider `N#Cc1ccc(Cl)cc1S[C@H]1OC(CO)[C@H](O)C(n2cc(-c3nc(Cl)cs3)cn2)C1O` (stereo partly drawn) [Example 29, 5-Chloro-2-cyanophenyl 3-[4-(4-chlorothiazol-2-yl)-1H-1,2-pyrazol-1-yl]-3-deoxy-1-thio-α-D-galactopyranoside], for which the Kd at Galectin-1 was 0.49 µM; at Galectin-3, 1.5 µM.

The values are drawn from patent publication US12410207B2, “Galactoside inhibitor of galectins” (GALECTO BIOTECH AB, priority 2019, dated 2025).
